Test results as given in the OligoGym collection.
These antisense oligonucleotides have a phosphorothioate backbone; sugars and methylation of C are not fully specified.

What follows are sequences tested against PYGL. Details: ASO.
Also: test concentration or dose not given here.

Sequence	remaining target (mRNA or protein) (fraction of control)
ATCACCCAGGAAGCTGTGGA	0.31
CCCATGTAAAATTCCAGAGA	0.44
TTCTGGTTGAGCTCCCATGC	0.52
CCCCATTCCCAGAGATACTC	0.32
TGGAGCCAAACTTGGAGGCT	0.32
TCTGTCAGCGGTTCGCCCAT	0.69
TGCCACGTTCTCCACGCCCA	0.18
CTTGACCAGCGTGAAGTGCA	0.48
CCGCCCCGCCGCGCCAGGAG	≥ 1
ACGGGCCAGCGCTCCAGGGC	0.47
GCGCGAAGTAGTAGTCGCGG	0.8
CCACATTGGCCCCATCCATG	0.19
CAGCTTTACCACCAATGATA	0.29
TCCAACATTAAAGTCTCTGA	0.62
AGGATGGGTTGATCTTCACT	0.39
CGGGCTGCGCAGAGAGCTGG	0.87
ATTTTGCAGACCGAGGTTGA	0.31
AGTATTCTTTTGCCTCGTAC	0.21
ATCAGAGACATCCTTCTCAG	0.33
GCAGGCAGCAAGTCTCCCAA	0.29

Sequence	remaining target (mRNA or protein) (fraction of control)
ATTGTCATTGGGATAGAGGA	0.49
ACAGTTCAAGAGCTGTCGCT	0.39
TTGTCAATTTGATCAATGAC	0.62
GGGCGGGACTTCTCCCAAGG	0.79
CTGCAAGTCCTGGGTTGCAG	0.49
CAGCGGTTCGCCCATGGCTG	0.98
TCCCGGTGTTGGTGTGTTCT	0.63
TTCCAACCATAGGGTCATTG	0.27
TCCAGCGCCCCACCAGGTGG	0.44
CACAGCATGGGAACCGACAA	0.15
TACCTGCCATCCATCTCGGA	0.15
CTCTTCTATATCCAATCCAA	0.63
TCATGATAAAATAGCATGTT	≥ 1
ATCTGTGGCTGGAATGACTT	0.79
GCCGTATCCATAGGCTGCAA	≥ 1
GAAGTCCTTGAATACTTTAG	0.4
ATGCTCATGCCAAAGATGAA	0.98
TCATATTGCCTGTCCCCGAG	0.18
GGTGTTGACAGTGTTATTCA	0.56
ATGCTTCTGATTTATCTCAT	0.49

What follows are sequences tested against AKT1. Details: ASO.

Sequence	remaining target (mRNA or protein) (fraction of control)
TCCTCCTCCTCCTGCTTC	0.91
ACGTTCTTCTCCGAGTGC	0.7
GCCTCTCCATCCCTCCAA	0.24
TAAAACCCGCAGGATAGT	0.26
GGCAGCCCCTTTGACTTC	0.47
CACAGAGAAGTTGTTGAG	0.78
GCGGCTGGCTGACAGAGT	0.39
CGAAAAGGTCAAGTGCTA	0.59
CCCAGAGAGATGACAGAT	0.54
TACTCAGGTGTGCCGCAA	0.34
AAGTGCTACCGTGGAGAG	0.43
GCCGTGAACTCCTCATCA	0.44
GGAGAACAAACTGGATGA	≥ 1
TACTCCCCTCGTTTGTGC	≥ 1
TTTTCTTCCCTACCCCGC	0.36
CCTGAGTTGTCACTGGGT	0.51
AGTCTGGATGGCGGTTGT	0.51
ATTTGAACAACATAATAC	0.89
AAAGTTGAATGTTGTAAA	0.9
ACAGCGTGGCTTCTCTCA	0.88

These sequences were tested against ITGB3. Details: ASO.

Sequence	remaining target (mRNA or protein) (fraction of control)
CATTCCTCCAGCCAATCT	0.6
GTGATGAGGAGTTTCCAG	0.98
ACACACACATAAACACAC	≥ 1
TGTCACTACCAACATGAC	0.32
TCACCCTCAAGCTAAGCA	≥ 1
AGCTTCTCAGTCATCAGC	0.28
AGCTGCTGAGAGTCAGGC	0.22
ACATACTGACATTCTCCC	≥ 1
AAGGTAGACGTGGCCTCT	0.71
TGGATGGAGAAATTCTTC	0.64
TCTCACTGAGGTAATGAA	0.66
TGTCCCATTTTGCTCTGG	0.53
ACGACACAGTCATCCTCA	≥ 1
TCAGCTTGGGCCTGGCAG	0.6
AGACAACTCTTCAGGGAG	0.62
ACCACATACAGGATGGAC	≥ 1
GACTCCTGCAATCCTGGC	0.53
AGATGCTGGTACATCCCC	0.4
GCCCCGAAGCCAATCCGC	≥ 1
GTTCTGGATGCTCCACAG	0.55

Sequence	remaining target (mRNA or protein) (fraction of control)
GCATCCTTGCCAGTGTCC	0.47
CAATAAGGCAAATCTGAA	0.77
AGAGATTGACTACATTTT	0.93
CTTCCGTCCAATGCTATA	0.96
ACTCACTGGGAACTCGAT	0.66
AGTCCTCCTCTGAGCACT	0.55
ATGACTGCTTATCATTAA	≥ 1
TCACCGTGTCTCCAATCT	0.53
AGGCATCTGGGCAGGTGG	0.9
AAAGGCACAGGCAGCTCT	≥ 1
GCATCTCGTCCGCCTCCC	0.44
CCACGGGCTTTATGGTAA	0.63
GCCCATTGCTGGACATGC	≥ 1
CACATTGACCACAGAGGC	0.74
AGAAGTCGTCACACTCGC	0.72
TCAAACTTCTTACACTCC	0.54
TCCTTCGGCCTGAGGGAG	0.57
GCCAGCACAGTCACCCAG	≥ 1
CTTTAGAACGGATTTTCC	≥ 1

These sequences were tested against GNAI2. Details: ASO.

Sequence	remaining target (mRNA or protein) (fraction of control)
TTCAGGTCCTCAAACTTA	0.38
GGAAAGAGGAGAAAAGCG	0.65
CGGACAGGTCATCAGGGA	0.59
GCGCTTATTCAGGTCCTC	0.33
CCTCAAACTTACTCTGGA	0.85
GGGTCCGTAGCACATCTT	0.47
AGGTCGTTCAGGTAGTAG	0.64
AGACAAGGGCAGGCTTCA	0.37
GGCAGGCTTCAAACAGGG	0.52
TGAGCAGGTGGACTGTGG	0.31
AGGAAGAGGATGATGGAC	≥ 1
GGCCTGTGCGAACCCCTC	0.96
CAACAGCAGCAACTTCAC	0.89
CTGTGACGCCCTCAAAGC	0.51
AGTCCTTCAGGTTGTTCT	0.54
AGGCTCCCTGTAAACATT	0.77
GGGAAGCAGATGGTCAGG	0.86
AGCTGGTATTCCCTTGAG	0.55
GCGAACCCCTCCCCTACG	0.71
AACATTTGGACTTGGCTG	0.76

Sequence	remaining target (mRNA or protein) (fraction of control)
CGCAGAAGATGATGGCTG	0.67
ATGGTGCTCTTCCCTGAC	0.52
CGTTCTTGGTGTCGGTGG	0.39
CCCGCCCGACCCACCCGA	0.62
TGAAGTGTGTCTCCACGA	0.61
GAACATAAGCCAGAAGGG	0.94
CCCTCCAGACGCAGCCTT	0.47
CTTCCCTGACTCCCCAGC	0.3
AGCCCATCCCGCCGTCCG	0.91
CTTGAAGGTGAAGTGTGT	0.74
GCCCCGCTGCCCCTCAGA	0.65
AGCTGCCTGGCGTCGTCC	0.34
CGCCCTCAAAGCAGTGGA	0.61
ACATCTTGAAGTGTAGGT	0.78
ACCAGCATCTCAGACAAG	≥ 1
CTGCTTGACGATGGTGCT	0.6
GGTTCATCTCCTCGTCCT	0.64
CCCCTCCCTCATACACAG	0.62
AAAGAGAGGAAAGAGGAG	0.99
ACACAGACAAGACAATGT	≥ 1
